Results: patent US10287320B2, “Anti-lymphoma peptides” (Universitetet i Tromsø—Norges Arktiske Universitet, priority 2014, dated 2019)
Square brackets hold non-standard residues; d marks the D form. Ends that are not written are not given here. Trp(2,5,7-tBu3) = CC(C)(C)c1cc(C(C)(C)C)c2[nH]c(C(C)(C)C)c(C[C@H](N)C(=O)O)c2c1

Key:
[1] = test system: MRC-5 cells; experiment: MTT cytotoxicity assay against MRC-5 normal fibroblasts (selectivity, SI-1); type: cell-based, Human
Method: The first screen against A20 and MRC-5 was done manually, while the lymphoma panel screen were done at Marbio (Tromsø) using an automated platform (Biomek NX, Beckman Coulter).
Cells were automatically counted (Z1 Coulter Particle Counter, Beckman Coulter) and the cells seeded out in 96-well plates. The plates were incubated for at least 16 hours before the start of the assay.
(§1) The growth media was removed and the cells washed once with 100 μL assay media (RPMI-1640). Cells were then treated with 100 μL peptide solution (concentration varying from 500-10 μg/mL) for 4 hrs. Normal assay media and assay media containing 0.1% Triton were used as negative and positive controls, respectively. After this period 10 μL of a MTT solution (5 mg/mL) was added to each well and the plate incubated for a further 2 hrs. Following this 70 μL of the media was carefully removed and 100 μL acidified isopropanol added. The formed formazan crystals were dissolved by agitating the cells with a micropipette and by shaking (30 mins). The absorbance of the reduced MTT (formazan) was read on Versa Max Microplate Reader (Molecular Devices) at 590 nm. All assays, unless mentioned otherwise, were done in triplicate.
During the initial screening process peptide analogues was tested against normal human fibroblasts (SI-1) and the results used to estimate cytotoxicity towards healthy cells surrounding the tumor.

[2] = test system: A20 cells; experiment: MTT cytotoxicity assay against A20 lymphoma cells; type: cell-based, Murine; conditions: for IC50: A20 cells; for ΔIC50 on further increase of charge: 4a→5 and 6a→7, A20 cells; for ΔIC50 (difference in activity against A20): compared with peptide 4a
Method: as §1, with “The first screen against A20 and MRC-5 was done manually, while the lymphoma panel screen were done at Marbio (Tromsø) using an automated platform (Biomek NX, Beckman Coulter). Cells were automatically counted (Z1 Coulter Particle Counter, Beckman Coulter) and the cells seeded out in 96-well plates. The plates were incubated for at least 16 hours before the start of the assay. The growth” for “The growth”

[3] = test system: A20 lymphomas; conditions: mouse, in vivo
Method: A20 tumor cells were harvested, washed in RPMI-1640 and inoculated (i.d.) into the left side of the abdomen in BALB/c mice (5×10^6 cells in 50 μl RPMI-1640 per mouse). When the tumor size reached 20 mm^2 the mice were split into three groups and treated; Group1—nine mice with the vehicle (0.9% NaCl in sterile H2O), Group2a—eight mice where the tumors were treated with peptide 6a, and Group 3a—nine mice where the tumors were treated with peptide 11. Intralesional injections were performed once a day for three consecutive days.
Tumor size was measured three times a week using an electronic caliper and expressed as the area of an ellipse [(maximum dimension/2)×(minimum dimension/2)×[…]. Animals were killed when the tumor exceeded 100 mm^2. Animals were killed also if the tumor had not reached that size but presented ulcerations or the animals developed metastasis.
Survival curves were compared by the log-rank test. Groups were compared using one-way ANOVA test with Tukey's multiple comparison. Differences were considered significant when P<0.05.

[4] = test system: Namalawa (Burkitt's lymphoma); type: cell-based, Human; conditions: 16 h
Method: as §1, with “The first screen against A20 and MRC-5 was done manually, while the lymphoma panel screen were done at Marbio (Tromsø) using an automated platform (Biomek NX, Beckman Coulter). Cells were automatically counted (Z1 Coulter Particle Counter, Beckman Coulter) and the cells seeded out in 96-well plates. The plates were incubated for at least 16 hours before the start of the assay. The growth” for “The growth”

[5] = test system: Ramos (Burkitt's lymphoma); type: cell-based, Human; conditions: 16 h
Method: as §1, with “The first screen against A20 and MRC-5 was done manually, while the lymphoma panel screen were done at Marbio (Tromsø) using an automated platform (Biomek NX, Beckman Coulter). Cells were automatically counted (Z1 Coulter Particle Counter, Beckman Coulter) and the cells seeded out in 96-well plates. The plates were incubated for at least 16 hours before the start of the assay. The growth” for “The growth”

[6] = test system: three T-lymphoma lines; type: cell-based, Human; conditions: 16 h
Method: as §1, with “The first screen against A20 and MRC-5 was done manually, while the lymphoma panel screen were done at Marbio (Tromsø) using an automated platform (Biomek NX, Beckman Coulter). Cells were automatically counted (Z1 Coulter Particle Counter, Beckman Coulter) and the cells seeded out in 96-well plates. The plates were incubated for at least 16 hours before the start of the assay. The growth” for “The growth”

[7] = test system: SU-DHL-6 (diffuse large B cell lymphoma); type: cell-based, Human; conditions: 16 h
Method: as §1, with “The first screen against A20 and MRC-5 was done manually, while the lymphoma panel screen were done at Marbio (Tromsø) using an automated platform (Biomek NX, Beckman Coulter). Cells were automatically counted (Z1 Coulter Particle Counter, Beckman Coulter) and the cells seeded out in 96-well plates. The plates were incubated for at least 16 hours before the start of the assay. The growth” for “The growth”, “media (RPMI-1640). […] Normal assay” for “media (RPMI-1640). Cells were then treated with 100 μL peptide solution (concentration varying from 500-10 μg/mL) for 4 hrs. Normal assay”

[8] = Cardiovascular toxicity assessment in telemeterized rats; type: in vivo, Sprague-Dawley rats; conditions: IV twice-daily, telemetry -1 to 8 hours
Method: Male Sprague-Dawley (Charles River, Portage, Mich.) rats (320-400 g) were instrumented with DSI (St. Paul, Minn.) telemetry transmitters by CorDynamics.
EWL-6 was stored in a freezer set to maintain approximately −20° C. and protected from light. A formulation comprising EWL-6 was prepared at a dose volume of 1 mL/kg/dose in 0.9% sodium chloride for injection, U.S.P., for IV dosing. Doses were filtered through a […] PP filter prior to injection.
Each rat was manually restrained and vehicle or EWL-6 dosed twice-daily intravenously over approximately 1-2 minutes. Daily doses were separated by approximately 4 hours.
Pulse pressure (FIG. 8) and mean arterial pressure (FIG. 9) were recorded for −1 to 8 hours following the first daily dose via telemetry and reported in 1 minute averages from −1 to 8 hours following the first daily dose.

[9] = test system: HT-29 Colon carcinoma; type: cell-based; conditions: 4 h
Method: as §1

[10] = test system: DU-145 Prostate carcinoma; type: cell-based; conditions: 4 h
Method: as §1

[11] = Table 1, selectivity, normal human fibroblasts (MRC-5) versus A20 lymphoma, MTT
[12] = five most active peptides from the A20 screening, tested against normal human fibroblasts
[13] = Table 2, analogues of 6a, MRC-5 fibroblasts versus A20 lymphoma, MTT
[14] = Table 3, MRC-5 fibroblasts versus A20 lymphoma

WR(Tbt)-GG-RRRRRRR (SEQ ID NO: 16) (WR[Trp(2,5,7-tBu3)]GGRRRRRRR-NH2; N-terminus assumed; SMILES CC(C)(C)c1cc(C(C)(C)C)c2[nH]c(C(C)(C)C)c(C[C@H](NC(=O)[C@H](CCCNC(=N)N)NC(=O)[C@@H](N)Cc3c[nH]c4ccccc34)C(=O)NCC(=O)NCC(=O)N[C@@H](CCCNC(=N)N)C(=O)N[C@@H](CCCNC(=N)N)C(=O)N[C@@H](CCCNC(=N)N)C(=O)N[C@@H](CCCNC(=N)N)C(=O)N[C@@H](CCCNC(=N)N)C(=O)N[C@@H](CCCNC(=N)N)C(=O)N[C@@H](CCCNC(=N)N)C(N)=O)c2c1) [Peptide 4b]
SI-1 [1, 11]: 2 | SI-1 / selectivity [1, 12]: almost no selectivity at all

KLAKLAKKLAKLAK-GG-RRRRRRR (SEQ ID NO: 9) [Peptide 1b]
SI-1 [1, 11]: 5 | SI-1 / selectivity [1, 12]: low selectivity

WWWGGRRRRRRRRR [Peptide 6b, WWWGGRRRRRRRRR (SEQ ID NO: 21)]
SI-1 [1, 13]: 9 | SI-1 [1, 14]: 9 | IC50 ([2]; Table 3, MTT, 4 hrs treatment): 3.5 µM

RWRW-GG-RRRRRRR (SEQ ID NO: 13) (RWRWGGRRRRRRR-NH2) [Peptide 5]
ΔIC50 on further increase of charge [2]: ≈ 1 μM

WRRRGRRWRGRRRW [Peptide 6c, WRRRGRRWRGRRRW (SEQ ID NO: 22)]
SI-1 [1, 13]: >100 | SI-1 [1, 14]: >100 | IC50 ([2]; Table 3, MTT, 4 hrs treatment): 6.1 µM

(Tbt)R(Tbt)-GG-RRRRRRR (SEQ ID NO: 17) ([Trp(2,5,7-tBu3)]R[Trp(2,5,7-tBu3)]GGRRRRRRR-NH2; N-terminus assumed; SMILES CC(C)(C)c1cc(C(C)(C)C)c2[nH]c(C(C)(C)C)c(C[C@H](NC(=O)[C@H](CCCNC(=N)N)NC(=O)[C@@H](N)Cc3c(C(C)(C)C)[nH]c4c(C(C)(C)C)cc(C(C)(C)C)cc34)C(=O)NCC(=O)NCC(=O)N[C@@H](CCCNC(=N)N)C(=O)N[C@@H](CCCNC(=N)N)C(=O)N[C@@H](CCCNC(=N)N)C(=O)N[C@@H](CCCNC(=N)N)C(=O)N[C@@H](CCCNC(=N)N)C(=O)N[C@@H](CCCNC(=N)N)C(=O)N[C@@H](CCCNC(=N)N)C(N)=O)c2c1) [Peptide 4c]
SI-1 [1, 11]: 1 | SI-1 / selectivity [1, 12]: almost no selectivity at all | ΔIC50 (difference in activity against A20) [2]: small and unexpected decrease in activity

WRWRWGGRRRRRRR-NH2 [Peptide 6a, WRWRW-GG-RRRRRRR (SEQ ID NO: 14)]
systemic toxic effects [3]: no signs of systemic toxic effects | IC50 [4]: < 10 µM | IC50 [5]: < 10 µM | IC50 [6]: ~4.6 µM | IC50 [7]: < 10 µM

WRWRW-GG-RRRRRR (SEQ ID NO: 18) [Peptide 8]
SI-1 [1, 13]: 21

W-GG-RRRRRRR (SEQ ID NO: 10) (WGGRRRRRRR-NH2) [Peptide 2]
ΔIC50 (difference in activity against A20) [2]: 58 µM

WRWRW-GG-RRRR (SEQ ID NO: 20) (WRWRWGGRRRR-NH2) [Peptide 10]
SI-1 [1, 13]: >23

WRWRWGGKKKKKKK [WRWRW-GG-KKKKKKK, WRWRW-GG-KKKKKKK (SEQ ID NO:26)]
IC50 ([2]; as described in Example 1): 13.2 µM

WGRRRRRGWGRRRRGW-NH2 [EWL-6, WGRRRRRGWGRRRRGW (SEQ ID NO: 8)]
mean arterial pressure compared to control [8]: No noticeable difference | pulse pressure compared to control [8]: No noticeable difference

RWRWRWGGRRRRRRR-NH2 [Peptide 7, RWRWRW-GG-RRRRRRR (SEQ ID NO: 15)]
SI-1 / selectivity ([1]; 16 h): higher than 10 | SI-1 [1, 11]: 12 | ΔIC50 on further increase of charge [2]: ≈ 1 μM

WRRRRRWRRRRW-NH2 [Peptide 11, WRRRRRWRRRRW (SEQ ID NO: 23)]
IC50 [9]: 70 µM | IC50 [10]: 69 µM | systemic toxic effects [3]: no signs of systemic toxic effects | IC50 [4]: < 10 µM | IC50 [5]: < 10 µM | IC50 [6]: ~4.6 µM | IC50 [7]: < 10 µM

WRWRW-GG-RRRRR (SEQ ID NO: 19) (WRWRWGGRRRRR-NH2) [Peptide 9]
SI-1 [1, 13]: 23
